# Laboratory results: patent publication US20150218141A1, “SUBSTITUTED CARBAMATE COMPOUNDS” (HOFFMANN-LA ROCHE INC, priority 2012, published 2015)
# Counter-ions that a name gives are not always drawn.
# Molecular target: T1, hTRPA1 (Homo sapiens, UniProt O75762)
# T1 construct: host or cells: CHO-K1 Tet-On, Clone 20 (Chinese Hamster Ovary cells, inducible expression)
# Test: IC50 determination, dose response calcium flux (FLIPR) assay, ChanTest hTRPA1-CHO stably transfected cell line
# Assay type: cell-based
# Settings: CHO-K1 Tet-On hTRPA1 cells, 30' preincubation, agonist cinnamaldehyde final 100 uM
# Protocol: IC50 Determination of Exemplified Compounds Dose Response Assay: ChanTest hTRPA1-CHO Stably Transfected Cell Line
# CHO-K1 Tet-On_HOMSA_TRPA1_Clone—20
# Growth Media for CHO-K1 Tet-On_HOMSA_TRPA1_Clone—20 • Ham's F-12 with 10% tetracycline-free FBS • 1× penicillin-streptomycin • 1× glutamax • 0.01 mg/ml Blasticidin • 0.40 mg/ml Zeocin • The cell line doubling rate was ˜15 hours. […] Experiments were run at 24 hours post induction.
# Plating Conditions CHOK1/TRPA1 Cells: • Harvested cells with 0.025% trypsin/EDTA. • Resuspended cells in growth media without selection antibiotics. • Measured cell density and diluted to 2.4×10^5 cells/ml in media containing 1 ug/ml Doxycycline Plate 25 ul/well into 384 well black/clear tissue culture-treated plates. • Incubated overnight at 37° C.
# Reagents: • Replacement Buffer: Hank's Balanced Salt Solution, 20 mM HEPES along with 0.005% BSA and 2× Probenecid • Dye Loading Buffer: Cal-3 NW Calcium dye was prepared by dissolving the contents of one vial with […] Hank's Balanced Salt Solution containing 20 mM HEPES. • Control compounds for CHOK1/TRPA1 cells: AP-18, stock 10 mM, prepare 3.5× compound dilution in a Compound Buffer (HBSS/20 mM HEPES/0.005% BSA)—final concentration 10 uM.
# Preparation of Cinnamaldehyde (Agonist Addition):
# • Specific gravity=1.046 gm/cc • 1.32 gm/1.046 gm/cc=1.26 ml of stock • Add 1.74 ml DMSO=3.3 M stock • Working solution 4.5× (final 100 uM in Compound Buffer: HBSS/20 mM HEPES/0.005% BSA)
# Compounds dilutions were prepared from 5 or 10 mM stock (100% DMSO): • Adjustments of volumes and concentrations were made at time of titration to reflect desired final assay concentrations. • Compounds were tested at either 20 μM three folds dilution 11 steps out or 30 μM two folds dilution 11 steps out. • 3 μl of diluted compound were transferred into Weidmann 384-well plate in duplicates side-by-side.
# Compound plates were resuspended with 100 ul of HBSS/20 mM HEPES/0.005% BSA buffer (Compound Buffer):
# Growth media was removed from the cell plates (20 ul) and 20 ul of the Replacement Buffer was added followed by addition of 25 ul of diluted dye. All three steps were performed using a Plate Washer BioTek 407. The plates were then incubated for 30′ at RT.
# After incubation, both the cell and compound plates were brought to the FLIPR and 20 ul of the diluted compounds/antagonist/bk were transferred to the cell plates by the FLIPR. Plates were then incubated for 30′ at room temperature. After 30′ incubation, plates were returned to the FLIPR and 20 ul of 4.5× Cinnamaldehyde was added to the cell plates. During the compound addition as well as agonist addition, fluorescence readings were taken simultaneously from all 384 wells of the cell plate every 1.5 seconds. Five readings were taken to establish a stable baseline, then 20 ul of sample was rapidly (30 ul/sec) and simultaneously added to each well of the cell plate. The fluorescence was continuously monitored before, during and after sample/agonist addition for a total elapsed time of 100 seconds (compound addition) and 120 seconds (agonist addition). Responses (increase in peak fluorescence) in each well following agonist addition was determined. The initial fluorescence reading from each well, prior to ligand stimulation, was used a zero baseline value for the data from that well.
# T1 sequence (O75762 whole entry): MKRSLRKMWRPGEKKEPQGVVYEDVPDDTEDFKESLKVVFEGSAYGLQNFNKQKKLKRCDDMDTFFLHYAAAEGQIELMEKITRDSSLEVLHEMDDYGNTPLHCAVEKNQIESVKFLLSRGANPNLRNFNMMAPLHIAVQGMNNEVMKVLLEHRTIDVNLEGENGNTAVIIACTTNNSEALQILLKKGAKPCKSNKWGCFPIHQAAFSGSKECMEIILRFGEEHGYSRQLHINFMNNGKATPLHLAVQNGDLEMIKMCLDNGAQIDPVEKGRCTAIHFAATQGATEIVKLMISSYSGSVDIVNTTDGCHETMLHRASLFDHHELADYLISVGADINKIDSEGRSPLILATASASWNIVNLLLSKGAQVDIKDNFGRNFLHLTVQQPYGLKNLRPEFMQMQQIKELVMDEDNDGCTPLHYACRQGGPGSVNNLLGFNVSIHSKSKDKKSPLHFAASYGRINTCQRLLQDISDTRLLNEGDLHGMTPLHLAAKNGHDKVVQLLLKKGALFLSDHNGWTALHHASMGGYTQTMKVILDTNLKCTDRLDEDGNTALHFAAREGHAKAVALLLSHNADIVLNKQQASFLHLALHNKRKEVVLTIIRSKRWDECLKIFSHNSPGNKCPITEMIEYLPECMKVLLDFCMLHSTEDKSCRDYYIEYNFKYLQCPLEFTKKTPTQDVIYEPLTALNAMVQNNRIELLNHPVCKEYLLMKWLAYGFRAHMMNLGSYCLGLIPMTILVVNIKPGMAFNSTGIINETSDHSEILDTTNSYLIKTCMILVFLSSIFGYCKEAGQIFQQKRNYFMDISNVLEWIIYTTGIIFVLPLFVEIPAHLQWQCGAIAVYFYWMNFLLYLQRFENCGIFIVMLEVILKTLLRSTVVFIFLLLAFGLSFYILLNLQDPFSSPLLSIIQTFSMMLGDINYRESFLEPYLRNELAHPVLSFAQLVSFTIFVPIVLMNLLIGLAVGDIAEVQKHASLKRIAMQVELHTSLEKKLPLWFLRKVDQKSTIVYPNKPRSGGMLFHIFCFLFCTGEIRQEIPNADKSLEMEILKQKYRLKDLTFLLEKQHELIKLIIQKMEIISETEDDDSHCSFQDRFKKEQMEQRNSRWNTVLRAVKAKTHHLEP
row,Compound,IC50
1,"COc1cccc(C2CCCN(C[C@H](OC(=O)Nc3ccc(Br)cc3)C(F)(F)F)C2)c1 (stereo partly drawn) [Example 60, (4-Bromophenyl)-carbamic acid (S)-2,2,2-trifluoro-1-[3-(3-methoxyphenyl)-piperidin-1-ylmethyl]-ethyl ester hydrochloride]",365 nM
2,"O=C(Nc1ccc(Cl)cc1)OC(CN1CCCC(OCc2ccccc2)C1)C(F)(F)F (stereo not shown) [Example 14, (4-Chlorophenyl)-carbamic acid 1-(3-benzyloxypiperidin-1-ylmethyl)-2,2,2-trifluoroethyl ester]",137 nM
3,"O=C(Nc1ccc(Cl)cc1)O[C@@H](CN1CCCC(Oc2ccccc2)C1)C(F)(F)F (stereo partly drawn) [Example 40, (4-Chlorophenyl)-carbamic acid (S)-2,2,2-trifluoro-1-(3-phenoxypiperidin-1-ylmethyl)-ethyl ester hydrochloride]",191 nM
4,"O=C(Nc1ccc(Cl)cc1)O[C@@H](CN1CCCC(c2cccc(C(F)(F)F)n2)C1)C(F)(F)F (stereo partly drawn) [Example 56, (4-Chlorophenyl)-carbamic acid (S)-2,2,2-trifluoro-1-(6-trifluoromethyl-3′,4′,5′,6′-tetrahydro-2′H-[2,3′]bipyridinyl-1′-ylmethyl)-ethyl ester hydrochloride]",246 nM
5,"CS(=O)(=O)c1cccc(C2CCCN(C[C@H](OC(=O)Nc3ccc(Cl)cc3)C(F)(F)F)C2)c1 (stereo partly drawn) [Example 62, (4-Chlorophenyl)-carbamic acid (S)-2,2,2-trifluoro-1-[3-(3-methanesulfonylphenyl)-piperidin-1-ylmethyl]-ethyl ester hydrochloride]",1160 nM
6,"O=C(Nc1ccc(Cl)cn1)O[C@@H](CN1CCCC(c2cccc(C(F)(F)F)c2)C1)C(F)(F)F (stereo partly drawn) [Example 59, (5-Chloropyridin-2-yl)-carbamic acid (S)-2,2,2-trifluoro-1-[3-(3-trifluoromethylphenyl)-piperidin-1-ylmethyl]-ethyl ester hydrochloride]",270 nM
7,"O=C(Nc1ccc(Cl)cc1)O[C@@H](CN1CCC[C@H](c2cc(C(F)(F)F)cc(C(F)(F)F)c2)C1)C(F)(F)F [Example 23, (4-Chlorophenyl)-carbamic acid (S)-1-[(R)-3-(3,5-bis-trifluoromethylphenyl)-piperidin-1ylmethyl]-2,2,2-trifluoroethyl ester]",21.5 nM
8,"O=C(Nc1ccc(Cl)cc1)O[C@@H](CN1CCC[C@H](Oc2ccncc2)C1)C(F)(F)F (racemic) [Example 22b, (4-chlorophenyl)-carbamic acid 2,2,2-trifluoro-1-[(S)-3-(pyridin-4-yloxy)-piperidin-1-ylmethyl]-ethyl ester]",1760 nM
9,"O=C(Nc1ccc(Cl)cc1)O[C@@H](CN1CCC[C@H](c2cccc(C(F)(F)F)c2)C1)C(F)(F)F (single isomer, unassigned) [Example 30, hydrochloride]",10.4 nM
10,"N#Cc1ccc(OC2CCCN(C[C@H](OC(=O)Nc3ccc(Cl)cc3)C(F)(F)F)C2)cc1 (stereo partly drawn) [Example 46, (4-Chlorophenyl)-carbamic acid (S)-1-[3-(4-cyanophenoxy)-piperidin-1-ylmethyl]-2,2,2-trifluoroethyl ester hydrochloride]",411 nM
11,"COc1cccc(CC2CCCN(C[C@H](OC(=O)Nc3ccc(Cl)cc3)C(F)(F)F)C2)c1 (stereo partly drawn) [Example 12, (4-Chlorophenyl)-carbamic acid (S)-2,2,2-trifluoro-1-[3-(3-methoxybenzyl)-piperidin-1-ylmethyl]-ethyl ester hydrochloride salt (1:1)]",550 nM
12,"CS(=O)(=O)c1cccc(C2CCCN(C[C@H](OC(=O)Nc3ccc(F)cc3)C(F)(F)F)C2)c1 (stereo partly drawn) [Example 63, (4-Fluorophenyl)-carbamic acid (S)-2,2,2-trifluoro-1-[3-(3-methanesulfonylphenyl)-piperidin-1-ylmethyl]-ethyl ester hydrochloride]",2910 nM
13,"COc1cc(OC)cc(C2CCCN(C[C@H](OC(=O)Nc3ccc(Cl)cc3)C(F)(F)F)C2)c1 (stereo partly drawn) [Example 21, (4-Chlorophenyl)-carbamic acid (S)-1-[3-(3,5-dimethoxyphenyl)-piperidin-1-ylmethyl]-2,2,2-trifluoroethyl ester]",203 nM

# Further compounds by falling IC50, results first:
row,IC50,Compound
1,7700 nM,"COc1cccc([C@@H]2CCCN(C[C@H](OC(=O)Nc3ccc(Cl)cc3)C(F)(F)F)C2)c1 [Example 4, (4-Chlorophenyl)-carbamic acid (S)-2,2,2-trifluoro-1-[(S)-3-(3-methoxyphenyl)-piperidin-1-ylmethyl]-ethyl ester hydrochloride]"
2,6200 nM,"O=C(Nc1ccc(Cl)cc1)O[C@H](CN1CCC[C@@H](c2ccccc2)C1)C(F)(F)F [Example 8, (4-Chlorophenyl)-carbamic acid (R)-2,2,2-trifluoro-1-((S)-3-phenylpiperidin-1-ylmethyl)-ethyl ester hydrochloride]"
3,1340 nM,"O=C(Nc1ccc(Cl)cc1)O[C@@H](CN1CCC[C@@H](Cc2ccccc2)C1)C(F)(F)F (single isomer, unassigned) [Example 10]"
4,900 nM,"CCC1CCCN(CC(OC(=O)Nc2ccc(Cl)cc2)C(F)(F)F)C1 (stereo not shown) [Example 17, (4-Chlorophenyl)-carbamic acid 1-(3-ethylpiperidin-1-ylmethyl)-2,2,2-trifluoroethyl ester]"
5,596 nM,"N#Cc1ccnc(OC2CCCN(C[C@H](OC(=O)Nc3ccc(Cl)cc3)C(F)(F)F)C2)c1 (stereo partly drawn) [Example 54, (4-Chlorophenyl)-carbamic acid (S)-1-[3-(4-cyanopyridin-2-yloxy)-piperidin-1-ylmethyl]-2,2,2-trifluoroethyl ester hydrochloride]"
6,444 nM,"O=C(Nc1ccc(Cl)cc1)O[C@@H](CN1CCCC(c2ccc(F)cc2)C1)C(F)(F)F (stereo partly drawn) [Example 42, (4-Chlorophenyl)-carbamic acid (S)-2,2,2-trifluoro-1-[3-(4-fluorophenyl)-piperidin-1-ylmethyl]-ethyl ester hydrochloride]"
7,408 nM,"COc1cccc(OC2CCCN(C[C@H](OC(=O)Nc3ccc(Cl)cc3)C(F)(F)F)C2)c1 (stereo partly drawn) [Example 49, (4-Chlorophenyl)-carbamic acid (S)-1-[3-(3-methoxyphenoxy)-piperidin-1-ylmethyl]-2,2,2-trifluoroethyl ester hydrochloride]"
8,273 nM,"COc1cccc(C2CCCN(C[C@H](OC(=O)Nc3ccc(F)cc3)C(F)(F)F)C2)c1 (stereo partly drawn) [Example 61, (4-Fluorophenyl)-carbamic acid (S)-2,2,2-trifluoro-1-[3-(3-methoxyphenyl)-piperidin-1-ylmethyl]-ethyl ester hydrochloride]"
9,219 nM,"N#Cc1cccc(OC2CCCN(C[C@H](OC(=O)Nc3ccc(Cl)cc3)C(F)(F)F)C2)c1 (stereo partly drawn) [Example 47, (4-Chlorophenyl)-carbamic acid (S)-1-[3-(3-cyanophenoxy)-piperidin-1-ylmethyl]-2,2,2-trifluoroethyl ester hydrochloride]"
10,178 nM,"O=C(Nc1ccc(Cl)cc1)O[C@@H](CN1CCCC(COc2ccc(F)cc2)C1)C(F)(F)F (stereo partly drawn) [Example 51, (4-Chlorophenyl)-carbamic acid (S)-2,2,2-trifluoro-1-[3-(4-fluorophenoxymethyl)-piperidin-1-ylmethyl]-ethyl ester hydrochloride]"
11,55.1 nM,"O=C(Nc1ccc(Cl)cc1)O[C@@H](CN1CCCC(Oc2cccc(OC(F)(F)F)c2)C1)C(F)(F)F (stereo partly drawn) [Example 50, (4-Chlorophenyl)-carbamic acid (S)-2,2,2-trifluoro-1-[3-(3-trifluoromethoxyphenoxyl)piperidin-1-ylmethyl]-ethyl ester hydrochloride]"
12,35.4 nM,"O=C(Nc1ccc(Cl)cc1)O[C@@H](CN1CCCC(c2cccc(C(F)(F)F)c2)C1)C(F)(F)F (stereo partly drawn) [Example 29, (4-Chlorophenyl)-carbamic acid (S)-2,2,2-trifluoro-1-[3-(3-trifluoromethylphenyl)-piperidin-1-ylmethyl]-ethyl ester hydrochloride]"
